In PubChem BioAssay (NCI) one finds TGI data, which are given here for seven molecules.

Each structure is given as a SMILES string.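 Growth conditions: 96-well plates. Treatment: test compound, 48 hours, 5 concentrations. Analysis: linear interpolation between bracketing concentrations; unreached endpoints set to highest concentration. At the TGI there is no net growth.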

Some test systems named below: BT-549 breast; CAKI-1 renal; HL-60(TB) leukemia; HOP-62 NSCLC; HOP-92 NSCLC; IGROV1 ovarian; KM12 colon; MALME-3M melanoma; MOLT-4 leukemia; NCI-H226 lung; OVCAR-8 ovarian; RPMI-8226 leukemia; SF-268 CNS; SK-MEL-28 melanoma; SK-MEL-5 melanoma; SK-OV-3 ovarian; SNB-19 CNS; SW-620 colon; U251 CNS.
Holding throughout (test): inhibition of tumour cell growth, NCI panel, 48 h

Consider `NCC(=O)Nc1ccc(S(=O)(=O)O)c2cc(S(=O)(=O)O)cc(S(=O)(=O)O)c12`, for which the TGI with BT-549 breast, in the test on CAKI-1 renal, with HL-60(TB) leukemia, with HOP-62 NSCLC, in the test on HOP-92 NSCLC and in the test with IGROV1 ovarian was greater than 100 µM throughout. For the same molecule, the TGI in the test on KM12 colon, with MALME-3M melanoma, in the test with MOLT-4 leukemia, in the test on NCI-H226 lung, with OVCAR-8 ovarian and in the test on RPMI-8226 leukemia was greater than 100 µM each time. The TGI in the test on SF-268 CNS, in the test with SK-MEL-28 melanoma, in the test with SK-MEL-5 melanoma, with SK-OV-3 ovarian, in the test with SNB-19 CNS and in the test on SW-620 colon was greater than 100 µM in each case. The same molecule yielded a TGI in the test with U251 CNS greater than 100 µM.
For the molecule `CCC(=O)O[C@H]1CC[C@H]2[C@@H]3CCC4=C/C(=N/OC(=O)c5cccc6cc7ccccc7nc56)CC[C@]4(C)[C@H]3CC[C@]12C`, the TGI in the test on BT-549 breast, in the test on CAKI-1 renal, with HL-60(TB) leukemia, in the test on HOP-62 NSCLC, with HOP-92 NSCLC and with IGROV1 ovarian was greater than 100 µM throughout. The TGI in the test on KM12 colon, with MALME-3M melanoma, in the test with MOLT-4 leukemia, in the test on NCI-H226 lung, in the test with OVCAR-8 ovarian and with RPMI-8226 leukemia was greater than 100 µM each time. Besides, the TGI in the test with SF-268 CNS was greater than 100 µM; in the test with SK-MEL-28 melanoma, greater than 100 µM; in the test on SK-MEL-5 melanoma it was 31.5 µM; with SK-OV-3 ovarian, greater than 100 µM; in the test with SNB-19 CNS, greater than 100 µM; in the test on SW-620 colon it was greater than 100 µM. The TGI in the test with U251 CNS is greater than 100 µM.
Regarding `O=C(N(O)c1ccccc1Cl)C(O)(c1ccccc1)c1ccccc1`, the TGI with BT-549 breast was greater than 100 µM; in the test on CAKI-1 renal, greater than 100 µM; with HL-60(TB) leukemia it was 64.7 µM; in the test on HOP-62 NSCLC it was greater than 100 µM; in the test on HOP-92 NSCLC it was greater than 100 µM; in the test with IGROV1 ovarian, greater than 100 µM. Further, the TGI was greater than 100 µM with KM12 colon; greater than 100 µM in the test on MALME-3M melanoma; greater than 100 µM in the test on MOLT-4 leukemia; greater than 100 µM in the test on NCI-H226 lung; greater than 100 µM in the test on OVCAR-8 ovarian; 69 µM with RPMI-8226 leukemia. Besides, the TGI in the test on SF-268 CNS, with SK-MEL-28 melanoma, in the test with SK-MEL-5 melanoma, with SK-OV-3 ovarian, in the test on SNB-19 CNS and in the test with SW-620 colon was greater than 100 µM throughout. The molecule also displayed a TGI with U251 CNS greater than 100 µM.
For `O=C(O)CCSC(CC1(c2ccc(Cl)cc2)NC(=O)CCS1)c1ccccc1` (stereo not drawn), the TGI in the test on BT-549 breast was 31.1 µM; in the test with CAKI-1 renal it was 37.3 µM; with HL-60(TB) leukemia, greater than 100 µM; in the test on HOP-62 NSCLC, 44.1 µM; in the test with HOP-92 NSCLC, 62.2 µM; with IGROV1 ovarian, 31.7 µM. The TGI was 14.1 µM with KM12 colon; 41.6 µM with MALME-3M melanoma; greater than 100 µM with MOLT-4 leukemia; 40.8 µM in the test on NCI-H226 lung; 39.5 µM with OVCAR-8 ovarian; greater than 100 µM in the test on RPMI-8226 leukemia. Further, the TGI in the test on SF-268 CNS was 38.4 µM; in the test with SK-MEL-28 melanoma, 37.7 µM; in the test with SK-MEL-5 melanoma it was 48 µM; with SK-OV-3 ovarian it was 38 µM; in the test on SNB-19 CNS it was greater than 56.1 µM; in the test with SW-620 colon, 41.7 µM. For the same molecule, the TGI in the test with U251 CNS was 42.2 µM.
`CCOC(=O)/C=C(/C(=O)OCC)n1cnc2c(=O)[nH]c(NC(C)=O)nc21`: the TGI in the test with BT-549 breast, in the test on CAKI-1 renal, in the test with HL-60(TB) leukemia, with HOP-62 NSCLC, with HOP-92 NSCLC and in the test on IGROV1 ovarian was greater than 100 µM throughout. Moreover, the TGI in the test with KM12 colon, in the test with MALME-3M melanoma, with MOLT-4 leukemia, in the test with NCI-H226 lung, with OVCAR-8 ovarian and in the test on RPMI-8226 leukemia was greater than 100 µM in each case. The TGI in the test with SF-268 CNS, with SK-MEL-28 melanoma, in the test with SK-MEL-5 melanoma, with SK-OV-3 ovarian, in the test on SNB-19 CNS and with SW-620 colon was greater than 100 µM each time. Also, the TGI in the test with U251 CNS is greater than 100 µM.
Turning to `O=C1NC(N/N=C\C(O)C(O)C(O)C(O)CO)=N/C1=C/c1ccc(Cl)cc1` (stereo not drawn), the TGI in the test with BT-549 breast, with CAKI-1 renal, in the test on HL-60(TB) leukemia, in the test with HOP-62 NSCLC, with HOP-92 NSCLC and in the test with IGROV1 ovarian was greater than 100 µM throughout. Further, the TGI in the test with KM12 colon, with MALME-3M melanoma, in the test on MOLT-4 leukemia, with NCI-H226 lung, in the test on OVCAR-8 ovarian and in the test with RPMI-8226 leukemia was greater than 100 µM throughout. The TGI in the test on SF-268 CNS, with SK-MEL-28 melanoma, in the test with SK-MEL-5 melanoma, in the test on SK-OV-3 ovarian, with SNB-19 CNS and with SW-620 colon was greater than 100 µM in each case. In the test with U251 CNS, this molecule yielded a TGI greater than 100 µM.
As to `O=C1C=C(NCCOCCO)C(=O)c2c(O)ccc(O)c21`, the TGI is greater than 100 µM in the test with BT-549 breast; greater than 100 µM in the test with CAKI-1 renal; 40.4 µM with HL-60(TB) leukemia; greater than 100 µM in the test with HOP-62 NSCLC; 51.3 µM in the test on HOP-92 NSCLC; greater than 100 µM in the test with IGROV1 ovarian. Moreover, the TGI with KM12 colon was greater than 100 µM; with MALME-3M melanoma, 24.2 µM; with MOLT-4 leukemia, 79.7 µM; in the test with NCI-H226 lung it was greater than 100 µM; in the test with OVCAR-8 ovarian, 86.5 µM; with RPMI-8226 leukemia, 78 µM. Besides, the TGI was greater than 100 µM in the test on SF-268 CNS; greater than 100 µM with SK-MEL-28 melanoma; 25.9 µM in the test with SK-MEL-5 melanoma; greater than 100 µM in the test with SK-OV-3 ovarian; greater than 100 µM in the test on SNB-19 CNS; 33.1 µM with SW-620 colon. In the test with U251 CNS, this molecule yielded a TGI of 77.9 µM.
